Data on 6 compounds can be found in patent US20250115578A1, “AROMATIC FUSED RING NAV1.8 INHIBITOR, AND USE THEREOF” (CHENGDU KANGHONG PHARMACEUTICAL CO., LTD., priority 2022, published 2025).

Molecules are shown by their SMILES. ≈ marks a conversion by molar mass, not a printed value.

Series [1] is described as follows: Assay of kinetic solubility. The format is physicochemical. To be noted: aqueous buffer, kinetic from dmso stock, pH 3.5 phosphate buffer, 25° C.
For series [2], the system named is postoperative pain model in rats. Put plainly: Efficacy test in postoperative pain model in rats (mechanical allodynia, PWT). The format is in vivo, Sprague-Dawley male rats. Particulars: single oral 30 mg/kg; for Inhibition of mechanical hyperalgesia induced by postoperative pain model: at 1 h, 2 h and 4 h after administration. Here is the method: Sprague-Dawley male rats, purchased from Zhejiang Vital River Laboratory Animal Technology Co., LTD
Compounds of the example 10, 14, 16, 31 of the invention were weighted and prepared into solutions of 3 mg/mL using 5% DMSO (Anhui Senrise Technologies Co., Ltd)+30% Solutol HS15 (Beijing Ouhe Technology Co., LTD.)+65% water for injection, and administered at a volume of 10 mL/kg by gavage. The dosage was 30 mg/kg.
Animals were anesthetized with Zoletil 50+ Xylazine Hydrochloride (20 mg/kg+8 mg/kg, intraperitoneally injected). The surgical area on the plantar skin of the left hind paw was disinfected three times with iodophor and 70% ethanol, and the surgery was started after the skin was dry.
A longitudinal incision about 1 cm was made towards the toes starting from 0.5 cm away from the heel of the left hind paw. After the skin was incised, the flexor digitorum brevis was raised and longitudinal blunt injury was caused. After hemostasis by pressing, the wound was sutured. After surgery, animals were placed on an electric warm pad and 5 mL of physiological saline was injected subcutaneously to prevent dehydration. 24 h after modeling, all animals (including the normal control group) were tested for base mechanical allodynia (PWT). The modeling animals without mechanical hypersensitivity (PWT greater than 5 g) were excluded and […] were selected and randomly divided into 5 groups, with 9 animals in each group except 5 in the normal group (negative control group).
The animals were weighed and administered orally at a volume of 10 mL/kg. Except normal control animals, other animals were given a single dose of compounds, and mechanical allodynia was performed by test fibers on all groups of animals at 1 h, 2 h and 4 h after dosing. The rats were placed individually in a plexiglass box with a grid at the bottom to ensure that the paws of the rats could be tested. The rats would acclimate for 15 minutes before the test. After the acclimation was completed, the test fibers were used to test on the plantar center of the rat's left hind paw. Pressed the test fiber vertically against the skin and applied force to bend the fiber for 6 to 8 seconds, with 5 second intervals between each test. The rapid withdrawal of the animal's paws during the test was recorded as a pain response. The animal's paw withdrawal when the fibers left the animal's skin was also recorded as a pain response. If the animal moves or walks around, it's not recorded as a pain response, and the test should be repeated.
Mechanical hyperalgesia was expressed as the paw withdrawal threshold (PWT) in the rat behavioral test, which was calculated according to the following formula:
50% response threshold (g)=(10^(Xf+kδ)/10,000 • Xf=final test fiber value used in the test • k=table value (Chaplan et al. 1994, page 62) • δ=mean deviation
Data were collected with excel software and analyzed with Prism 7.0 (Graph pad software, Inc.) software by two-way ANOVA followed by Dunnett multiple comparison test.

Compound `NC(=O)c1cc(NC(=O)c2nc3ccccc3nc2N2CCCC(F)(F)CC2)ccc1F` [Example 02, N-(3-carbamoyl-4-fluorophenyl)-3-(4,4-difluoroazepan-1-yl)quinoxaline-2-carboxamide] had a solubility (kinetic) at 2 h in series [1] of 2.8 µM (≈ 1.24 µg/mL).
In turn, `NC(=O)c1cc(NC(=O)c2nc3ccccc3nc2N2CCCC(F)(F)CC2)ccn1` [Example 05, N-(2-carbamoylpyridin-4-yl)-3-(4,4-difluoroazepan-1-yl)quinoxaline-2-carboxamide] had a kinetic solubility at 2 h in series [1] of 0.39 µM (≈ 0.166 µg/mL).
On to `NC(=O)c1cc(NC(=O)c2cc3ccccc3nc2N2CCCC(F)(F)CC2)ccn1` [Example 08, N-(2-carbamoylpyridin-4-yl)-2-(4,4-difluoroazepan-1-yl)quinoline-3-carboxamide], for which the solubility (kinetic) at 2 h in series [1] was found to be 175 µM (≈ 74.5 µg/mL).
For `NC(=O)c1cc(NC(=O)c2cc3cc(F)c(F)cc3nc2N2CCCC(F)(F)CC2)ccn1` [Example 10, N-(2-carbamoylpyridin-4-yl)-2-(4,4-difluoroazepan-1-yl)-6,7-difluoroquinoline-3-carboxamide], in series [2], the “Inhibition of mechanical hyperalgesia induced by postoperative pain model” value (shortened to “Inhibition”) is on record as “inhibited mechanical hyperalgesia”.
`NS(=O)(=O)c1cc(NC(=O)c2cc3ccccc3nc2N2CCCC(F)(F)CC2)ccn1` [Example 14, 2-(4,4-difluoroazepan-1-yl)-N-(2-sulfamoylpyridine-4-yl) quinoline-3-carboxamide]: in series [1], the kinetic solubility at 2 h worked out at 271 µM (≈ 125 µg/mL). Besides, the “Inhibition” value in series [2] was “inhibited mechanical hyperalgesia”. Also, in series [2] (at 1 h and 4 h after administration), the “Efficacy compared with example compound 31” value is “significantly stronger than that of example compound 31”.
Consider `NS(=O)(=O)c1cccc(NC(=O)c2cc3cc(F)c(F)cc3nc2N2CCCC(F)(F)CC2)c1` [Example 16, 2-(4,4-difluoroazepan-1-yl)-6,7-difluoro-N-(3-sulfamoylphenyl) quinoline-3-carboxamide], for which, in series [2] (after 1 h of administration), the “Efficacy compared with example compound 31” value is given as “significantly more effective than example compound 31”. Also, the “Inhibition” value in series [2] is on record as “inhibited mechanical hyperalgesia”.
